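Step 1: Grow cells in 96-well plates. Step 2: Expose to compound for 48 hours at 5 concentrations. Step 3: Interpolate endpoints linearly; if unreached, use highest concentration. TGI denotes the concentration required for complete inhibition of growth.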
Assays:
Experiment in all cases: inhibition of tumour cell growth, NCI panel, 48 h
SK-MEL-2 melanoma = tested on: SK-MEL-2 melanoma
SK-OV-3 ovarian = tested on: SK-OV-3 ovarian
M14 melanoma = tested on: M14 melanoma
CCRF-CEM leukemia = tested on: CCRF-CEM leukemia
SF-268 CNS = tested on: SF-268 CNS
NCI-H460 lung = tested on: NCI-H460 lung
IGROV1 ovarian = tested on: IGROV1 ovarian
KM12 colon = tested on: KM12 colon
UO-31 renal = tested on: UO-31 renal
786-0 renal = tested on: 786-0 renal
OVCAR-5 ovarian = tested on: OVCAR-5 ovarian
RXF 393 renal = tested on: RXF 393 renal

SMILES | TGI (SK-MEL-2 melanoma) [µM] | TGI (SK-OV-3 ovarian) [µM] | TGI (M14 melanoma) [µM] | TGI (CCRF-CEM leukemia) [µM] | TGI (SF-268 CNS) [µM] | TGI (NCI-H460 lung) [µM] | TGI (IGROV1 ovarian) [µM] | TGI (KM12 colon) [µM] | TGI (UO-31 renal) [µM] | TGI (786-0 renal) [µM] | TGI (OVCAR-5 ovarian) [µM] | TGI (RXF 393 renal) [µM]
CCOC(=O)NC(=S)c1ccc(O)c2ccccc12 | > 100 | > 100 | > 100 | 46.7 | > 100 | > 100 | 49.1 | > 100 | > 100 | > 100 | > 100 | 
Cc1cc2c(cc1C)C(=O)/C(=N/Nc1ccc(F)cc1)CCO2 | 97 | > 100 | > 100 | > 100 | > 100 | > 100 | > 100 | > 100 | > 100 | > 100 | > 100 | 
C=CCn1cnc2c(=O)[nH]c(Nc3ccccc3)nc21 | > 100 | > 100 | > 100 | > 100 | > 100 | > 100 | > 100 | > 100 | > 100 | > 100 | > 100 | 
CN(C)c1ccc(C(=NN)c2ccc(N(C)C)cc2)cc1 | 0.445 | > 85.5 | > 100 | 3.41 | > 100 |  | > 100 | > 100 | > 100 | 36.5 | > 100 | > 32.7
CC(C)(C)NC(=O)C12C3C4C1C1C2C3C41C(=O)NC(C)(C)C (stereo unspecified) | > 100 |  | > 100 | > 100 | > 100 | > 100 | > 100 | > 100 | > 100 | > 100 | > 100 | > 100
O=C1/C(=C/c2cccs2)NC(=S)N1CN1CCCC(CO)C1 (stereo unspecified) | > 100 | > 100 | > 100 | > 100 | > 100 |  | > 100 | > 100 | > 100 | > 100 | > 100 | 
CCN(CC)COC(=S)S | 57 | > 100 | > 100 |  | > 100 | > 100 | > 100 | > 100 | > 100 | > 100 | > 100 | > 56.1
CN(C)C(=O)C1CCN(Cc2c[nH]c3ccccc23)CC1 | > 100 | > 100 | > 100 |  | > 100 |  | > 100 | > 100 | > 100 | > 100 | > 100 | > 100

Source: PubChem BioAssay (NCI)
